Assay results published in patent publication US20160250213A1, “FORMULATIONS OF AZAINDOLE COMPOUNDS” (priority 2013, published 2016).

Columns and labels:
[1] = system: A/New York/18/2009 (H1N1); assay: microbe, parasite or virus in culture; assay type: cell-based; settings: Influenza A virus, H1N1, MDCK; read-out: Cell Protection Assay EC50 ± SD
[2] = system: A/Cambodia/0371/2007 (H1N1); assay: microbe, parasite or virus in culture; assay type: cell-based; settings: Influenza A virus, MDCK, read-out: Cell Protection Assay EC50 ± SD

Q: `O=C(O)[C@H]1C2CCC(CC2)C1Nc1nc(-c2c[nH]c3ncc(F)cc23)ncc1F` (some centres unmarked) [Compound (1)] was tested. Which EC50 [1] did it give?
A: 590 pM

Q: And the EC50 [2]?
A: 610 ± 330 pM
